Experimental findings from ChEMBL document CHEMBL1201862, “PubChem BioAssay data set” (2004) are described below.

The source made the active and inactive calls.

For one assay, the target named is Large T antigen (Simian virus 40, UniProt P03070). The class given is functional, Betapolyomavirus macacae.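 Also: Confirmatory-stage PubChem screen for compounds that inhibit SV40 T antigen.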
Assay [1] has as its target DNA dC->dU-editing enzyme APOBEC-3G (Homo sapiens, UniProt Q9HC16). The assay is described as follows: Dose Response confirmation of small molecule APOBEC3G DNA Deaminase Inhibitors via a fluorescence-based single-stranded DNA deaminase assay. [Related pubchem assays (depositor defined):AID493012, AID493028]. It counts as functional.
In assay [2] the target is T1, Heat shock factor protein 1 (Mus musculus, UniProt P38532).
T1 sequence (P38532 whole entry): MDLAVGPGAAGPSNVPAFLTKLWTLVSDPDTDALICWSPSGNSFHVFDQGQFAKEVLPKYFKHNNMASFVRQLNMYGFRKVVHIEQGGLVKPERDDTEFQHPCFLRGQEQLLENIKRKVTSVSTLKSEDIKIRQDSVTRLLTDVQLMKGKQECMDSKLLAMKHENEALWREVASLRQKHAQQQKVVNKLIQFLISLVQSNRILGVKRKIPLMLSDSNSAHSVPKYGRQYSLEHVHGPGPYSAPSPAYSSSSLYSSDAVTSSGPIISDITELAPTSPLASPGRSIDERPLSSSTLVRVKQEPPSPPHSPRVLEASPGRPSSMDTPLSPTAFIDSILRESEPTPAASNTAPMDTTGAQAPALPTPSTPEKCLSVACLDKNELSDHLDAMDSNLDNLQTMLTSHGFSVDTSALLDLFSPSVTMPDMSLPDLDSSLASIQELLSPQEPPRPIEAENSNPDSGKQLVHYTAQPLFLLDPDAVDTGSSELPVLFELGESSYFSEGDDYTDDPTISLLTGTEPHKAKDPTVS
The assay is described as follows: enhancement of HSF1-driven luciferase signal – cell-based, NIH3T3, luminescence, dose retest, confirmation (AID 435004).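 Also: stress induced by proteasome inhibitor MG132 added 30 min after compound; luciferase reporter driven by HSF1 response element in NIH3T3 cells; actives raise luminescence as potentiators of the MG132 stress response.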 The class given is functional.

The next assay concerns the target Melanocortin receptor 4 (Homo sapiens, UniProt P32245). It counts as functional, cell-based.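 Also: Cell-based assay with luminescence read-out, confirmatory dose-response testing for agonist activity of biased ligands at MC4R; human U2OS cells with tagged receptor and beta-arrestin; potency of agonists that increase receptor coupling to beta-arrestin.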
For assay [3], the target named is Potassium voltage-gated channel subfamily KQT member 2 (Rattus norvegicus, UniProt O88943). The assay is described as follows: blockers of KCNQ2 channel current – cell-based, automated electrophysiology, set II, rat KCNQ2, dose response (AID 588637). It counts as functional.
For assay [4], the target named is T2, Kappa-type opioid receptor (Homo sapiens, UniProt P41145). The class given is functional.
Another assay addresses Beta-galactosidase (Escherichia coli, UniProt Q8VNN2). It counts as functional.
In assay [5] the target is T2, Kappa-type opioid receptor. It counts as functional. This is another data set of the same source.
Assay [6] in a line: reduced cellular PGC1a acetyl-lysine signal – cell-based, cherry-picked samples, dose response (AID 720514).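 Also: potency may reflect raised or lowered acetylation signal.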 The class given is functional.
For assay [7], the target named is Voltage-dependent T-type calcium channel subunit alpha-1H (Homo sapiens, UniProt O95180). It counts as functional.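 Also: channel activity triggered by adding a high calcium stimulation buffer.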
Assay [8] has as its target T3, Adenosylmethionine-8-amino-7-oxononanoate aminotransferase (Mycobacterium tuberculosis, UniProt P9WQ81).
T3 sequence (P9WQ81 whole entry): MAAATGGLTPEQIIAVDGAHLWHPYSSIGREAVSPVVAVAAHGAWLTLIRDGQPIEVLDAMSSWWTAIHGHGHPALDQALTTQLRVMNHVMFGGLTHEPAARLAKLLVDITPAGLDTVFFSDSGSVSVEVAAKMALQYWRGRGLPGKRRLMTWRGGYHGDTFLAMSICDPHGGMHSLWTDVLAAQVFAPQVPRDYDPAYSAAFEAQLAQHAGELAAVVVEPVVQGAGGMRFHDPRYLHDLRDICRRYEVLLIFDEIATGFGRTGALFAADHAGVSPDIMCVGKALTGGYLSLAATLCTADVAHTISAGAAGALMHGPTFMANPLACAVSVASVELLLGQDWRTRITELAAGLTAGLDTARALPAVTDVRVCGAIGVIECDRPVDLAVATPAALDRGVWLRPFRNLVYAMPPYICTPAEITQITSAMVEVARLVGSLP
The assay can be described thus: Mycobacterium tuberculosis BioA enzyme inhibitor Measured in Biochemical System Using Plate Reader - 2163-02_Inhibitor_Dose_CherryPick_Activity. It counts as functional, Mycobacterium tuberculosis UT205.

Assay [9] can be described thus: Luminescence Cell-Based Dose Retest to Confirm Inhibitors of Cancer Stem Cells. [Related pubchem assays (depositor defined):AID2717, AID2721]. It counts as functional. Particulars: Homo sapiens.
The next assay concerns INS1. The assay can be described thus: INS-1E survival protection against cytokine death – cell-based, luminescence, retest, dose response (AID 449756).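 Also: cell death triggered by IL-1 beta plus TNF-alpha plus IFN-gamma mixture; protective hits raise ATP signal compared with cytokine alone wells.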 Particulars: Rattus norvegicus. The class given is functional.
Assay [10] addresses T4, Low molecular weight phosphotyrosine protein phosphatase (Homo sapiens, UniProt P24666).
T4 sequence (P24666 whole entry): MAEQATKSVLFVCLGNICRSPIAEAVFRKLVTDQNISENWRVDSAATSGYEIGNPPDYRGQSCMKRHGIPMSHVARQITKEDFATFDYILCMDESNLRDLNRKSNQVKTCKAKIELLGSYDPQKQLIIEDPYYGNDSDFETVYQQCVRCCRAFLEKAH
The class given is functional. Particulars: read-out: IC50_Mean.

The nature of assay [11]: A549 cell cytotoxicity, dose response, cytotoxicity control, plate reader, cherry-pick, antagonist series (AID 743412). It counts as functional, cell-based.
A short description of assay [12]: toxicity toward HepG2 liver cells – cell-based, plate reader, cherry-pick, antagonist series, cytotoxicity control, dose response (AID 743416). It counts as functional.
Assay [13] is described as follows: blockers of bursicon-stimulated LGR2 cAMP reporter – cell-based, HEK293, CRE-luciferase reporter, cherry pick, set 2, dose response (AID 743343).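 Also: transfected cells were stimulated with diluted bursicon conditioned medium after compound addition.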 It counts as functional. Background: Reporter assays use an easily measured gene product as a stand-in for the process of interest.
Assay [14] is described as follows: blockade of melanocortin 4 receptor signaling – cell-based, plate reader, cherry pick, counter-screen for LGR2 antagonist project, dose response (AID 743444).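 Also: transfected HEK 293 cells stimulated with alpha-MSH peptide; potency of inhibitors of the alpha-MSH evoked signal.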 It counts as functional. For orientation: A counterscreen serves to expose hits that act by an unwanted route or on another target.
Assay [15] is described as follows: viability loss in HEK293 cells – cell-based, plate reader, cherry-picked samples, cytotoxicity control, dose response (AID 743446). The class given is functional.
Assay [16] deals with Vero. The assay can be described thus: cells. It counts as functional, cell-based. Particulars: Chlorocebus sabaeus.
Assay [17] concerns Vero. The assay can be described thus: cells. Particulars: Chlorocebus sabaeus. The class given is functional.
Assay [18] is described as follows: THP-1 cell cytotoxicity, dose response, cytotoxicity control for non-replicating M. tuberculosis project (AID 489025). It counts as functional.
The target in assay [19] is T5, Short transient receptor potential channel 4 (Mus musculus, UniProt Q9QUQ5).
T5 sequence (Q9QUQ5 whole entry): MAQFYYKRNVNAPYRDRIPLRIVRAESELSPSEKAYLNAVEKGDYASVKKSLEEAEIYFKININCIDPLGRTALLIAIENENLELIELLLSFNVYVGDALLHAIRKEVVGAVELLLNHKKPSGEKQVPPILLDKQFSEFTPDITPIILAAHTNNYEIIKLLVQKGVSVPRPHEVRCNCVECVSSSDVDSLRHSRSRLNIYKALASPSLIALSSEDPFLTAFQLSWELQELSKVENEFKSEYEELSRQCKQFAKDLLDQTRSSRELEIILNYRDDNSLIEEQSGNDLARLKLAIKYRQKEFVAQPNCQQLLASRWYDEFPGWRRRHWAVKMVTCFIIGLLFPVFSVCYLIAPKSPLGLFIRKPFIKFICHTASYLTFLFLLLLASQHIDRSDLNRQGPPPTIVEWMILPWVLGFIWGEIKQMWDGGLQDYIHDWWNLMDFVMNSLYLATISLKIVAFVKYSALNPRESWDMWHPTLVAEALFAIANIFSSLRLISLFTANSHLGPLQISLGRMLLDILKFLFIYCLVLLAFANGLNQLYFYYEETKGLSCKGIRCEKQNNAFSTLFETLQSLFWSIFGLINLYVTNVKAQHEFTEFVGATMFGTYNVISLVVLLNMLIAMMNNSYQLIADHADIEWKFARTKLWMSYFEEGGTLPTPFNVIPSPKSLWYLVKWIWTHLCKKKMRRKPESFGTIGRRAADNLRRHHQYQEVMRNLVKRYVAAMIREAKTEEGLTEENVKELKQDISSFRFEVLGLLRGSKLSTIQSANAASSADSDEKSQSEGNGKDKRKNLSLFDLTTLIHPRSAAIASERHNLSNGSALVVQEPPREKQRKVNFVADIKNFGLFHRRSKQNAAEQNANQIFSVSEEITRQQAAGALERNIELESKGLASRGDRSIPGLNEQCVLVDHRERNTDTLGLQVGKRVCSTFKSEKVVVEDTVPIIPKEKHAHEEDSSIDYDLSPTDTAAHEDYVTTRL
The assay can be described thus: block of DAMGO-driven TRPC4 calcium entry – cell-based, HEK293 TRPC4/mu-opioid, Fluo-4 calcium, dose response (AID 434942).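 Also: potency of inhibitors blocking the TRPC4 calcium response.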 The class given is functional.

In a further assay the target is T6, Protein skinhead-1 (Caenorhabditis elegans, UniProt P34707).
T6 sequence (P34707 whole entry): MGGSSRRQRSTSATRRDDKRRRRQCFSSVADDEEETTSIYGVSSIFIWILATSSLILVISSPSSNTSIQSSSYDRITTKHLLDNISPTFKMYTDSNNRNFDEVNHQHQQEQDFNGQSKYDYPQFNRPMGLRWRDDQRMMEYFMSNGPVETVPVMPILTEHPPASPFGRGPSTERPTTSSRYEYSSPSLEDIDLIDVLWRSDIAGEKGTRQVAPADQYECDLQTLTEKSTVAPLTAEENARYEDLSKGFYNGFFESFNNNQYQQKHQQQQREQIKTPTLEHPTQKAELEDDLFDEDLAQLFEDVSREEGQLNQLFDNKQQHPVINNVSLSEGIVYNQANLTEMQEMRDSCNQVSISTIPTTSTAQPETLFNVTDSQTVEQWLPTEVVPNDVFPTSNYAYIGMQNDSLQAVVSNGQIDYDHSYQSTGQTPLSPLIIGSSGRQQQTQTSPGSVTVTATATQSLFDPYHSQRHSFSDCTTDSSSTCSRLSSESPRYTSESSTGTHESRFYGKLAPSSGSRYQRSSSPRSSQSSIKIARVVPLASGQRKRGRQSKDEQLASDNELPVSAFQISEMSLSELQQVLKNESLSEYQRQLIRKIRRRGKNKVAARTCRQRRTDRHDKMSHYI
It counts as functional.
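For IC50 Mean in this document: Dose-response confirmation assay measuring inhibition of LMPTP enzyme activity by fluorescence intensity read-out.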

Sequence of Melanocortin receptor 4 (P32245 whole entry): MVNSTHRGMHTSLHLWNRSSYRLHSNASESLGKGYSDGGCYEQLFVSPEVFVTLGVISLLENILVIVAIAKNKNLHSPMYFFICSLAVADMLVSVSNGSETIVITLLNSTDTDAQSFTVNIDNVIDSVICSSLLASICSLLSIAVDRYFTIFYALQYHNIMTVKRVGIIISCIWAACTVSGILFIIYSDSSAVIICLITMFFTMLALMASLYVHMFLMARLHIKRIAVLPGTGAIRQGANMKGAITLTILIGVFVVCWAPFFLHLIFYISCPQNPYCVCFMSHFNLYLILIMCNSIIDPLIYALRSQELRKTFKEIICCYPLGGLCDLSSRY
T2 sequence (P41145 whole entry): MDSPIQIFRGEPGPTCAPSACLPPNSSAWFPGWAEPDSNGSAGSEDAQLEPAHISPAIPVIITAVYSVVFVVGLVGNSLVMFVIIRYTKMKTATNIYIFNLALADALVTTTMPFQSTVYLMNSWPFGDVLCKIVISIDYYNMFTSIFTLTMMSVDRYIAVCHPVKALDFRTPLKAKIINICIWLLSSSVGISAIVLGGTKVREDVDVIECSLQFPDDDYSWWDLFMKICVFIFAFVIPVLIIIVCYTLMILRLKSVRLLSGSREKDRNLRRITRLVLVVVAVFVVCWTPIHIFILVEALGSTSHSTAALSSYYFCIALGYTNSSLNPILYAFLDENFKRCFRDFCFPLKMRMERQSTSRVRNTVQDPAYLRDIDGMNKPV
Sequence of Potassium voltage-gated channel subfamily KQT member 2 (O88943 whole entry): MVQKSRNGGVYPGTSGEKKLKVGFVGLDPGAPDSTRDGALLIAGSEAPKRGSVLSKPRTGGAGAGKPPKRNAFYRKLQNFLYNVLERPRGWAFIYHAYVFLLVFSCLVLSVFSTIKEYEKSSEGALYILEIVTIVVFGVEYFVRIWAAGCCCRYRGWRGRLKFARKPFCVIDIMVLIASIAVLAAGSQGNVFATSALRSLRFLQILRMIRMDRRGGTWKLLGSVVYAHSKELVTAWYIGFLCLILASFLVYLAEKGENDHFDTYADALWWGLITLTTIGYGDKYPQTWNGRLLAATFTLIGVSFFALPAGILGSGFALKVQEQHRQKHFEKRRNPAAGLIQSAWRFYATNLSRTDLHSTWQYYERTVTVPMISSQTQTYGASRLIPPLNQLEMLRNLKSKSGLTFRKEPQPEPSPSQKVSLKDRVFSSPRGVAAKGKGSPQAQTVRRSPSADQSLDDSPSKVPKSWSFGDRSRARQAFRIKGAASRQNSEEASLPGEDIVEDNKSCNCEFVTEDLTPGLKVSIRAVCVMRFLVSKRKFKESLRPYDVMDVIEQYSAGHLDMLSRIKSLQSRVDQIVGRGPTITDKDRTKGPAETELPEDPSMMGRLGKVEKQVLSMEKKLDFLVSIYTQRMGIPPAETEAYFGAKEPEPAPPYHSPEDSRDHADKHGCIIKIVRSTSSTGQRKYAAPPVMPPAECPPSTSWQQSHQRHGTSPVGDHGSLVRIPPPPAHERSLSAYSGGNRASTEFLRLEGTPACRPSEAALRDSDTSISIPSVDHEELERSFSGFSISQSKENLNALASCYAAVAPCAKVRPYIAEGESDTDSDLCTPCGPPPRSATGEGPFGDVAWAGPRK
Sequence of Beta-galactosidase (Q8VNN2 whole entry): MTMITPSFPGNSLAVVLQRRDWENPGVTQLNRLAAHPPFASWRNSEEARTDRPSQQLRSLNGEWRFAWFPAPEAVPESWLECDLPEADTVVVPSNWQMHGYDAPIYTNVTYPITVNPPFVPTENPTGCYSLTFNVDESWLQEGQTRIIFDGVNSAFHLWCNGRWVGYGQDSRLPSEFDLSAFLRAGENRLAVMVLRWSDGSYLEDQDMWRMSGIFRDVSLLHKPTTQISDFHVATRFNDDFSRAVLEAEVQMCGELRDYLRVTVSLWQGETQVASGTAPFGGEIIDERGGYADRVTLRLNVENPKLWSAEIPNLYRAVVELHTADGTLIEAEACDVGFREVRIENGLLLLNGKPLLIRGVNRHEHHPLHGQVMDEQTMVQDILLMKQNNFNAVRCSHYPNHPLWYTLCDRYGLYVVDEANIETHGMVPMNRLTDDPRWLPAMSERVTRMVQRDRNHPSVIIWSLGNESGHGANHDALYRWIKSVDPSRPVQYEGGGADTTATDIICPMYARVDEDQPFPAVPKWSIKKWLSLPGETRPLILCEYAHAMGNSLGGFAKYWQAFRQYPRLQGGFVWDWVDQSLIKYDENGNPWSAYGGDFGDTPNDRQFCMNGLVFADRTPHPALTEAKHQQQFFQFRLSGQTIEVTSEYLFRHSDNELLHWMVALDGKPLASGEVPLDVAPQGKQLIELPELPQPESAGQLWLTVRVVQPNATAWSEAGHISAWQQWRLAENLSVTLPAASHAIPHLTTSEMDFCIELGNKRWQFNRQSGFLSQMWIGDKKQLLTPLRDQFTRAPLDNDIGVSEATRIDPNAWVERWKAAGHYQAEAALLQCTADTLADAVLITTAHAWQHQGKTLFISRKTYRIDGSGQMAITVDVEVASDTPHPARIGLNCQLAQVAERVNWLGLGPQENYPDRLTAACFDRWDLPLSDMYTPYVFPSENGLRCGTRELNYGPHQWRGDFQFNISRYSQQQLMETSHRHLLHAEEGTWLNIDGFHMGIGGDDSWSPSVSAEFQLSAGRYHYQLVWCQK
Sequence of Voltage-dependent T-type calcium channel subunit alpha-1H (O95180 whole entry): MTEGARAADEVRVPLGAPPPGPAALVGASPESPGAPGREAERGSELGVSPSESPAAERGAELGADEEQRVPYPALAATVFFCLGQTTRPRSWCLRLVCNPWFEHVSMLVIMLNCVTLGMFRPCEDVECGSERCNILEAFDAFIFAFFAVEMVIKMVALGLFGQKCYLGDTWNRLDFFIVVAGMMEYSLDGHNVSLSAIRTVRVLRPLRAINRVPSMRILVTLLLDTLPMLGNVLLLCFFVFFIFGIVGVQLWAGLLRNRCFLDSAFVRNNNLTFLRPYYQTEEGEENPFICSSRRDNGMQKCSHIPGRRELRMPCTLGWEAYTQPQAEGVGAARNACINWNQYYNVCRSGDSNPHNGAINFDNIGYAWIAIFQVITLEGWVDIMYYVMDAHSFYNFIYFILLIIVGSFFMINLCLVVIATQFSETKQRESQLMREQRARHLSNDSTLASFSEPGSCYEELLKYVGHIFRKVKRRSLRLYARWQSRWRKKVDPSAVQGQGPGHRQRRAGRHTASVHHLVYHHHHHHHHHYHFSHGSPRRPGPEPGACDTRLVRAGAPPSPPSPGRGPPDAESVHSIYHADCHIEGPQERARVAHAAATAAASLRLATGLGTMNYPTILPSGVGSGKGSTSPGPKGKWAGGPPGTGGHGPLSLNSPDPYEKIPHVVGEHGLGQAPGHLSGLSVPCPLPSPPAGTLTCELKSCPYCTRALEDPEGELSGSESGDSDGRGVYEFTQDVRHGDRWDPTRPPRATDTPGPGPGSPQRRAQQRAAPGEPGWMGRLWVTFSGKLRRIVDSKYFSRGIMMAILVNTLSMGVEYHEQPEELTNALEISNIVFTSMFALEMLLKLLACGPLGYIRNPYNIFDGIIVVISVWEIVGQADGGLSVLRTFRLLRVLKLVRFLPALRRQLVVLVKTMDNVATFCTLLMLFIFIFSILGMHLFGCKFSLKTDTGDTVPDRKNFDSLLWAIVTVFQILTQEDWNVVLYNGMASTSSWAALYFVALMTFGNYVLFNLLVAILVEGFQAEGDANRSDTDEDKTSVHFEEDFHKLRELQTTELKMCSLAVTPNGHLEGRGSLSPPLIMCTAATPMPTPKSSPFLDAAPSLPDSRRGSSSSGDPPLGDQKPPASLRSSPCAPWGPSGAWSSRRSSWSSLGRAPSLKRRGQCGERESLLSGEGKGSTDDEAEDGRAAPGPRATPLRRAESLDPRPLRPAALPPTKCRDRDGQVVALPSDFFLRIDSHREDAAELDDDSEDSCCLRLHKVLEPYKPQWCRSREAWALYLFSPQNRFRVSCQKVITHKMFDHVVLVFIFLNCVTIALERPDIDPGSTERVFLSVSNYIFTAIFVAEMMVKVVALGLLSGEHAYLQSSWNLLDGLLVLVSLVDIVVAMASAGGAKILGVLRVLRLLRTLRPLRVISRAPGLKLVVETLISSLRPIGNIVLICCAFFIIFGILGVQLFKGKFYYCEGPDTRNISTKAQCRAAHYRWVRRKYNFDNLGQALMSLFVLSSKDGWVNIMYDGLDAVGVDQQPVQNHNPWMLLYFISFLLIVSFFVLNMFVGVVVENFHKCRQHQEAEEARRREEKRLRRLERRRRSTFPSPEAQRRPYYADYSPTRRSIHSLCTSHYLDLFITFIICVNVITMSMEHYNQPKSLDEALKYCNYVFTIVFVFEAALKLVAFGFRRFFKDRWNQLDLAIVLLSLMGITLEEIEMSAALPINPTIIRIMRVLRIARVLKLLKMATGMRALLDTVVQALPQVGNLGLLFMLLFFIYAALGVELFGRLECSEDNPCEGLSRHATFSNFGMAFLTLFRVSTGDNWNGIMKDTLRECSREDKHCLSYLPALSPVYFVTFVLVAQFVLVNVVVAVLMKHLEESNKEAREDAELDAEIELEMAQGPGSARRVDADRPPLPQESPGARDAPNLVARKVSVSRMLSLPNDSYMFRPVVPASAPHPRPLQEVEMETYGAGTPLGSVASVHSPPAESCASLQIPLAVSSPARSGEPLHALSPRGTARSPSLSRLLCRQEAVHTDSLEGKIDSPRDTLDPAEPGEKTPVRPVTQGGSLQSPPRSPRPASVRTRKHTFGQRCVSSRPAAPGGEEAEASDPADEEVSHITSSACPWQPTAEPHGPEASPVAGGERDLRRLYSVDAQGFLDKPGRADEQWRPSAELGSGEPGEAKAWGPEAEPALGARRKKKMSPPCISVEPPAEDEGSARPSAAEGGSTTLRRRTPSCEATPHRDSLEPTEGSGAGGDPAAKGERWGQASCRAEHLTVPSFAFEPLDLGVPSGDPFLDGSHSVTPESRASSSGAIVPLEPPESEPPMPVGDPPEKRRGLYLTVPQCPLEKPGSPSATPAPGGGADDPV

In general, EC50 refers to the concentration needed to bring the measured effect to its halfway point. In the case of `CSS(=O)(=O)c1cccc2cccnc12`, the IC50 was 65.2 µM (active) at Large T antigen and 9.66 µM (active) in assay [1]. Also, the EC50 in assay [2] was 19.1 µM (active).
Regarding `N#C/C(=C\c1cn(CCOc2ccccc2)c2ccccc12)C(=O)NCc1ccco1`, the EC50 at Melanocortin receptor 4 is > 89.2 µM (inactive).
Take `Cn1c(C(=O)N2CCc3ccccc3C2)cc2oc3ccccc3c21`: the IC50 in assay [3] was 6.99 µM (active).
For the compound `CCSc1nnc(NC(=O)c2csc3c2CCCC3)s1`, the EC50 at Melanocortin receptor 4 was > 89.2 µM (inactive).
As a reminder, the AC50 is the concentration at which the activity in the assay is half-maximal. Turning to `COc1ccc(-n2nc(C#N)c(Cl)cc2=O)cc1`, the IC50 is 7.21 µM (active) in [4] and 14 µM in [5]. On Beta-galactosidase, the EC50 is > 31.5 µM (inactive). In assay [6], the AC50 was 3.52 µM (active).
Turning to `Cc1cccc(-c2nc(CN3CCCC(C(=O)NC4CCCCCC4)C3)c(C)o2)c1` (configuration not stated), the EC50 in [7] is 5.56 µM (active). The IC50 in [3] was 7.19 µM (active).
For `CC(=O)c1ccc(C(=O)N2CCCC(Nc3ccccc3)C2)s1` (configuration not stated), in [8], the AC50 was 5.18 µM (active).
With `O=C(Nc1ccc(Cl)cc1)Nc1nnc(-c2ccncc2)s1`, the AC50 in [9] is 1.17 µM (active); with INS1, 3.54 µM (active); in assay [11], 15.5 µM (active); in assay [12] it was 5.88 µM (active); in [13], 3.51 µM (active); in [14] it was 1.74 µM (active). Also, the AC50 in [15] was 2.98 µM (active). Further, the IC50 in assay [10] was 30.6 µM (inactive).
A word on the CC50: it is the concentration that lowers cell viability or growth by half. In the case of `Cc1ccc(-n2ncc3c(SCc4ccccn4)ncnc32)c(C)c1`, the IC50 with Vero [16] is 1.6 µM (active). In addition, the CC50 with Vero [17] was > 25 µM (active).
`COc1cc(CNC2CCCC2)cc(Cl)c1OCc1ccc(F)cc1`: in assay [18], the cytotoxic concentration (CC50) was 19.8 µM (active). Besides, the EC50 in assay [19] was 6.68 µM (active). Besides, the IC50 on Protein skinhead-1 was 3.33 µM (active).
For `CC(=O)Nc1cc(-c2cccc(NS(C)(=O)=O)c2)cn2c(-c3ccccc3)cnc12`, the EC50 on Melanocortin receptor 4 was > 89.2 µM (inactive).
For `O=C(NCc1ccco1)c1ccc(-c2ccc3nccn3c2)cc1`, the AC50 in assay [8] is 1.64 µM (active).
As for `Cc1nn(-c2ccccc2)c(O)c1/C=N/N1C(=O)c2cccc3cccc(c23)C1=O`, the IC50 in assay [4] was 10.3 µM (active); in [5], over 32 µM. For the same compound, the EC50 at Beta-galactosidase was > 31.5 µM (inactive). The CC50 in the assay on Vero [17] is > 25 µM (active).
